# Source: PubChem BioAssay (NCI)
#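 Growth conditions: 96-well plates. Treatment: test compound, 48 hours, 5 concentrations. Analysis: linear interpolation between bracketing concentrations; unreached endpoints set to highest concentration. GI50: concentration for 50% inhibition of growth. TGI is the concentration that stops growth completely.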
# How the values were obtained:
# Test in all cases: DTP human tumour cell line panel, 48 h
# SNB-19 CNS = test system: SNB-19 CNS
# SK-MEL-28 melanoma = test system: SK-MEL-28 melanoma
# SF-295 CNS = test system: SF-295 CNS
# OVCAR-4 ovarian = test system: OVCAR-4 ovarian
# BT-549 breast = test system: BT-549 breast
# KM12 colon = test system: KM12 colon
# LOX IMVI melanoma = test system: LOX IMVI melanoma
# K-562 leukemia = test system: K-562 leukemia
# SR leukemia = test system: SR leukemia
# RPMI-8226 leukemia = test system: RPMI-8226 leukemia
SMILES,GI50 (SNB-19 CNS) [µM],TGI (SNB-19 CNS) [µM],GI50 (SK-MEL-28 melanoma) [nM],TGI (SK-MEL-28 melanoma) [µM],GI50 (SF-295 CNS) [nM],TGI (SF-295 CNS) [µM],GI50 (OVCAR-4 ovarian) [nM],TGI (OVCAR-4 ovarian) [µM],GI50 (BT-549 breast) [µM],TGI (BT-549 breast) [µM],GI50 (KM12 colon) [nM],TGI (KM12 colon) [µM],GI50 (LOX IMVI melanoma) [nM],TGI (LOX IMVI melanoma) [µM],GI50 (K-562 leukemia) [nM],TGI (K-562 leukemia) [µM],GI50 (SR leukemia) [nM],TGI (SR leukemia) [µM],GI50 (RPMI-8226 leukemia) [µM],TGI (RPMI-8226 leukemia) [µM]
C#CC[C@@H]1C[C@]2(C)[C@H]3CC[C@@H]4[C@H]5[C@H](C(=C)C)CC[C@]5(C(=O)O)CC[C@@]4(C)[C@]3(C)CC[C@H]2C(C)(C)[C@H]1O,3.04,13.4,2750,7.6,1450,3.17,1930,3.83,2.52,8.73,1640,4.83,2630,8.67,2320,20.9,3120,11.9,1.68,14.7
CCOC(=O)c1ccc2c(c1)[n+](=O)c(C(=O)c1ccc3ccccc3c1)c(C(F)(F)F)n2[O-],1.7,3.07,1660,3.02,1780,3.17,261,0.848,1.53,3.28,1250,2.51,175,0.329,312,1.51,331,1.6,1.1,3.63
CC1(C)CC(=O)C(C(c2cccc(O)c2O)C2C(=O)CC(C)(C)CC2=O)C(=O)C1,–,> 100,–,> 100,–,> 100,–,> 100,–,> 100,–,> 100,–,> 100,–,> 100,–,> 100,–,> 100
CCOCCc1c(O)nc(SC)[nH]c1=O,> 100,> 100,> 100000,> 100,> 100000,> 100,> 100000,> 100,> 100,> 100,> 100000,> 100,> 100000,> 100,> 100000,> 100,> 100000,> 100,> 100,> 100
Fc1ccc(-c2ncn(C3CCNCC3)c2-c2ccnc(Oc3ccccc3)n2)cc1,> 25,> 25,16900,> 25,18200,> 25,> 25000,> 25,23,> 25,> 25000,> 25,> 15800,> 25,10800,> 25,9170,> 20.1,> 23.9,> 25
CCOC(=O)c1c[nH]c2c(OCc3ccccc3)c3ccccc3c(O)c2c1=O,16.7,97.1,25800,> 100,2090,15.5,54300,> 100,12.7,37.8,6890,> 84.5,6830,33,3150,> 39.1,21300,> 100,26.9,> 100
COc1ccccc1CNCCCN1C(=O)c2ccc3c4c(ccc(c24)C1=O)C(=O)N(CCCNCCCCNCCCCN)C3=O,2.72,10.1,2100,5.9,2630,11,346,1.4,9.17,24.5,2420,6.91,941,4.76,1020,> 36.9,1500,17.7,1.83,9.62
CSC(=S)N/N=C/c1ccccc1,–,> 100,–,> 100,–,> 100,–,98.5,–,> 100,–,> 100,–,> 100,–,> 100,–,> 100,–,> 100
Cc1cc(Cl)ccc1NC(=O)/C(Cl)=C(/Cl)C(=O)O,–,> 100,–,41,–,> 100,–,–,–,41.7,–,82.8,–,43,–,> 100,–,36.4,–,70.5
O=C(c1ccccc1)c1ccc(Cl)c([N+](=O)[O-])c1,16,30.2,5590,19,17800,34.5,1730,3.13,16.7,31.5,5970,18.9,2430,6.11,3440,11.9,3040,9.66,3.64,21.9
Nc1ncnc2c1c(-c1cccc(OCc3ccccc3)c1)cn2C1CC(CN2CCCC2)C1 (configuration not stated),4.19,16.9,1400,2.8,1900,3.87,1860,6.59,2.02,4.99,1930,4.26,1520,3,1860,6.54,2400,11.2,1.94,5.4
COc1ccc(-c2cn(-c3ccc(Cl)cc3)c(=S)[nH]2)cc1OC,–,–,22300,> 100,6050,> 100,20800,> 100,7.3,> 100,23800,> 100,1520,3.11,> 100000,> 100,2910,> 100,4.43,92.3
C(=N/Nc1ncnc2nc[nH]c12)/c1ccccn1,0.98,> 100,1200,> 100,774,16,300,> 100,1.86,> 100,661,> 100,525,> 100,803,> 100,400,> 100,3.9,> 100
